Test results reported in US9198909B1, “Materials and methods for inhibiting mamalian S-nitrosoglutathione reductase” (Indiana University Research and Technology Corporation, priority 2007, dated 2015).

Experiments:
π-ADH = target: T1, π-ADH (Homo sapiens, UniProt P08319); assay: ADH isozyme selectivity study: π-ADH; type: biochemical; settings: about 5 μM inhibitor, pH 7.5, 1 mM NAD+, 35 mM ethanol
T1 construct: made in house; host or cells: E. coli
Description: (§1) Referring now to Table 2, briefly inhibition studies were performed in presence or absence of about 5 μM inhibitor. These studies were carried out at 25° C. in 50 mM potassium phosphate pH 7.5 including 0.1 mM EDTA. The enzymes activities were measured by following the changes in absorbance at 340 nm. The values show the percent reduction in the enzyme activity (from a minimum of two measurements) caused by the inhibitor. […] Studies with β2β2-, σσ-, π-ADH and involving compounds 5-8 were performed in 0.05% DMSO. Studies with GSNOR were performed in presence of 1% DMSO, except when compound 4 was the inhibitor. Studies with compound 4 were performed in 0.36% DMSO. DMSO at 0.36% inhibited β2β2-, σσ-, and π-ADH by 24, 18, and 9%, respectively. Studies with β2β2-ADH involved adding 3.5 μg of the enzyme to the assay mixture including 2 mM NAD^+, 1 mM ethanol and the inhibitor.
(§2) Studies with σσ-ADH involved adding 0.5 μg of enzyme to the assay mixture containing 2 mM NAD^+, 30 mM ethanol and the inhibitor. Studies with π-ADH involved adding 19.5 μg of the enzyme to the assay mixture including 1 mM NAD^+, 35 mM ethanol and the inhibitor. […]
(§3) Inhibition of the β2β2-, π-, and σ-ADH was evaluated by determining the inhibitory effect of GSNOR inhibitors on the rate of oxidation of ethanol by each of these ADH isozymes. […]

σ-ADH = target: T2, σ-ADH (Homo sapiens, UniProt P40394); assay: ADH isozyme selectivity study: σ-ADH; type: biochemical; settings: about 5 μM inhibitor, pH 7.5, 2 mM NAD+, 30 mM ethanol
T2 construct: made in house; host or cells: E. coli
T2 sequence (P40394 whole entry): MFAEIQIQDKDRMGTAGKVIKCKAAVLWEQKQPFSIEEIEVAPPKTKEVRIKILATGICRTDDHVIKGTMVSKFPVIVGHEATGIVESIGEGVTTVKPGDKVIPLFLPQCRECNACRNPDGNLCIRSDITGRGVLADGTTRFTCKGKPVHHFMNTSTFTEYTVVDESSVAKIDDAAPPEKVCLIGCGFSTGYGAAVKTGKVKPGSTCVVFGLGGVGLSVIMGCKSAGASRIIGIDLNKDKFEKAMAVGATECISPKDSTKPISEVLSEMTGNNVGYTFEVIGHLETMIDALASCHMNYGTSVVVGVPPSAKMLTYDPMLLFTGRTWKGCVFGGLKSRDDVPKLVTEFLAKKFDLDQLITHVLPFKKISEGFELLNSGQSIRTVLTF
Description: as §1, §2, §3

GSNOR [1] = target: T3, GSNOR (Homo sapiens, UniProt P11766); assay: ADH isozyme selectivity study: GSNOR; type: biochemical; set-up: made in house; host or cells: E. coli; settings: about 5 μM inhibitor, pH 7.5
Description: as §1
Target sequence in this assay (P11766 2-374 limits assumed): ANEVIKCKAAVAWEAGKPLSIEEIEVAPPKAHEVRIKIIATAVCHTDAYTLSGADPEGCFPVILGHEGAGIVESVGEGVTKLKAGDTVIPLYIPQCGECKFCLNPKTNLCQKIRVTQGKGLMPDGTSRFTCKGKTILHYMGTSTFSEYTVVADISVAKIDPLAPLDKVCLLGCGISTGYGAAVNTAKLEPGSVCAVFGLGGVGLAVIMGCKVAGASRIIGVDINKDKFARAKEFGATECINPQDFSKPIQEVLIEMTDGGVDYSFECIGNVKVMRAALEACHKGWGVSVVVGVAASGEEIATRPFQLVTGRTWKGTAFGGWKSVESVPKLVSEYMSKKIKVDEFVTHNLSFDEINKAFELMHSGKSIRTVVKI
Studies with σσ-ADH involved adding 0.5 μg of enzyme to the assay mixture containing 2 mM NAD^+, 30 mM ethanol and the inhibitor. Studies with π-ADH involved adding 19.5 μg of the enzyme to the assay mixture including 1 mM NAD^+, 35 mM ethanol and the inhibitor. Studies with GSNOR involved adding 0.1 μg of the enzyme to an assay mixture including 15 μM NADH, 5 μM GSNO and the inhibitor.

GSNOR•NADH complex [2] = target: T4, GSNOR•NADH complex (Homo sapiens, UniProt P11766); assay: Fluorescence equilibrium binding to GSNOR•NADH complex; settings: 1.7 μM NADH, 2 μM GSNOR, 50 μM compound 8
T4 construct: made in house; host or cells: E. coli
T4 sequence (P11766 2-374 limits assumed, one chain of several): as the sequence (P11766 2-374 limits assumed) above
Description: Referring now to FIG. 2, (A) Changes in the fluorescence of NADH (curve a) upon sequential addition of GSNOR (curve b) and compound 8 (curve c). To a solution of 1.7 μM NADH were added 2 μM GSNOR and 50 μM compound 8 in sequence and the fluorescence of the solution measured each time (λexc=350 nm; λemm=375-550 nm); (B) Changes in the fluorescence of NADH (curve a) upon sequential addition of GSNOR (curve b), 12-HDDA (curve c) and compound 8 (curve d). To a solution of 1.7 μM NADH were added 2 μM GSNOR, 810 μM 12-HDDA and 50 μM compound 8 in sequence and the fluorescence measured each time (λexc=350 nm; λemm=375-550 nm); (C) Binding of compound 8 to GSNOR•NADH complex. The change in fluorescence of a 1.7 μM NADH and 2 μM GSNOR mixture (λexc=350 nm; λemm=455 nm) with increasing concentrations of compound 8 was fitted to a single site binding model (equation 1; see materials and methods) using the Graphpad Prizm 4. All of the fluorescence studies were conducted at room temperature in 50 mM potassium phosphate pH 7.5.
Referring now to Table 3, inhibition experiments were performed at 25° C. in 50 mM potassium phosphate (pH 7.5) including 0.1 mM EDTA. […] The dissociation constant was measured at 25° C. in 50 mM potassium phosphate pH 7.5. […]
Fluorescence studies were conducted in 50 mM potassium phosphate pH 7.5, at room temperature using a Fluoromax-2 fluorescence spectrometer (Instruments S.A., Inc., Edison, N.J.). The equilibrium dissociation constant of GSNOR inhibitors was determined by measuring the changes in the fluorescence of GSNOR bound NADH (λexc=350 nm; λemm=455 nm) upon the addition of inhibitor. […] The decrease in fluorescence at 455 nm with each addition of inhibitor was plotted against the final concentration of inhibitor and the data were fitted to equation 1 using nonlinear regression to obtain the dissociation constant of the inhibitor for GSNOR-NADH complex,
[formula] In equation 1, ΔF is the change in the fluorescence at 455 nm upon the addition of inhibitor. ΔFM is the maximum fluorescence change that was obtained from curve fitting. […]

RAW 264.7 cells = assay: Nitroso species accumulation in RAW 264.7 cells (triiodide chemiluminescence); type: cell-based, rat
Description: Referring now to FIG. 3, briefly, RAW 264.7 cells were incubated with 500 μM GSNO alone (γ) or in presence of 33 μM Compound 6 (◯) or 7 (Δ) or 8 (▪). At indicated times or at 4 hr (in case of B), the cells were lysed and the lysate was analyzed for protein and nitroso species concentration by Bradford and chemiluminescence assay, respectively. For details, see Materials and methods. Data represents mean±SE (n=3−12).
RAW 264.7 cells were cultured in DMEM medium supplemented with 10% FBS, 200 U/ml of penicillin and 200 μg/mL of streptomycin. The cells were incubated at 37° C. in an atmosphere containing 5% CO2 and 95% air. For the experiments, 1-2×10^6 cells were plated in six-well plates a day before the experiment. On the day of the assay the medium was replaced with 3 ml of fresh medium and the cells were treated with compounds for a predetermined length of time. Following the incubation period, the cells were washed three times with PBS and scraped off the plate in 250 μl of lysis buffer (50 mM potassium phosphate pH 7.0 containing 50 mM NEM and 1 mM EDTA). Cells were lysed by sonication using a micro tip probe (three pulses of 30% duty cycle; 2 output control on a Fisher Sonicator). Cell debris was pelleted by centrifugation (10 min at 16,000 g) and the cell lysate was analyzed for protein concentration using the Bio-Rad dye-binding protein assay. The concentration of nitroso compounds in the cell lysate was determined using the triiodide based chemiluminescence method using a Sievers 280 nitric oxide analyzer. Briefly, cell lysates were treated with 15% v/v of a sulfanilamide solution (5% w/v in 0.2 M HCl) and kept at room temperature for 5 min to remove nitrite. The triodide mixture was prepared fresh every day as described earlier and kept at 60° C. in the reaction vessel. The concentration of nitroso species was derived from a standard curve generated using GSNO. For determining the amount of the small size nitroso compounds in the cell lysate, a 5 kDa-cutoff Amicon ultra filtration unit was used according to the supplier's instructions. The amount of s-nitrosothiols in the cell lysate was determined by treating initially passing the cell lysate through a microspin column and treating the eluate with 5 mM HgCl2 before determining the nitroso compound concentration using chemiluminescence. For some experiments the cells were pretreated with the compounds for 16 hours prior to the day of experiment.

GSNOR [3] = target: T3, GSNOR; assay: Dead-end inhibition studies of GSNOR; type: biochemical; set-up: made in house; host or cells: E. coli; settings: pH 7.5, 25° C., GSNO held at 10 μM
Description: Referring now to Table 3, inhibition experiments were performed at 25° C. in 50 mM potassium phosphate (pH 7.5) including 0.1 mM EDTA. A minimum of five concentrations of the varied substrate and three inhibitor concentrations were used for each experiment. NADH and GSNO concentrations were held at 15 or 10 μM, respectively when present as a constant substrate in the assay. The Kis and Kii values are respectively the slope and intercept inhibition constants and are listed along with their associated standard errors. All data were fit to a competitive (C), noncompetitive (NC), or uncompetitive (UC) inhibition models. The type of inhibition shown in the table represents the best fit of the data to the given model as judged from F statistics analysis. […] The dissociation constant was measured at 25° C. in 50 mM potassium phosphate pH 7.5. Each KD value is an average of three independent experiments and is shown with the associated standard error.
Inhibition experiments with the GSNOR inhibitors were conducted at 25° C. in 3 ml of 50 mM potassium phosphate (pH 7.5) containing 0.1 mM EDTA. […] A minimum of three inhibitor concentrations were used in these assays and the rate of NADH and GSNO consumption was determined spectrophotometrically by following change in absorbance at 340 nm. […]
Target sequence in this assay (P11766 2-374 limits assumed): as above

GSNOR•NADH complex [4] = target: T4, GSNOR•NADH complex; settings: alcohol substrate, abortive ternary complex; read-out: dissociation constant for the GSNOR•NADH complex; cited from earlier work
GSNOR [5] = target: T3, GSNOR; settings: read-out: KD of NADH for GSNOR; cited from earlier work
Target sequence in this assay (P11766 whole entry): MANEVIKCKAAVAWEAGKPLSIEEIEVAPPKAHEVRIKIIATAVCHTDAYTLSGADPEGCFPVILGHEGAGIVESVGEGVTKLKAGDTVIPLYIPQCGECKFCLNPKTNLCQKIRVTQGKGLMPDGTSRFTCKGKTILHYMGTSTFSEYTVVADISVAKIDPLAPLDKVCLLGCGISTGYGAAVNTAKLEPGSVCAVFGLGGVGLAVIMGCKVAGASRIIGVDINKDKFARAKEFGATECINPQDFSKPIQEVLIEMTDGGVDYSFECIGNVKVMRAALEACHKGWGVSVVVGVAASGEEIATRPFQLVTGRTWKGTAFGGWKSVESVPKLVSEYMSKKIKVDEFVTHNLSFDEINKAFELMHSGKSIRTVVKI

GSNOR [6] = target: T3, GSNOR; assay: GSNOR inhibition at pH 7.5 (GSNO, NADH); type: biochemical; set-up: made in house; host or cells: E. coli; settings: Table 1; pH not stated
Description: Referring now to Table 1, inhibition was studied at pH 10. These assays were performed in 0.1 M sodium glycine containing 1 mM octanol, 1 mM NAD^+, 0.1 mM EDTA and 50 μM inhibitor. Inhibition studies at pH 7.5 were performed in 50 mM potassium phosphate pH 7.5 that included 15 μM NADH, 10 μM GSNO, 0.1 mM EDTA and 50 μM inhibitor. The data file to a model consisted with partial inhibition and a hill coefficient of 2.4 in the inhibition curve. The screening for GSNOR inhibitors was performed using a library of 60,000 compounds from ChemDiv Inc in the Chemical Genomics Core facility at Indiana University. Screening was conducted in 384 well plates and involved incubating GSNOR with 12.5 μM compound, 1 mM each of NAD^+ and octanol in 0.1 M sodium glycine pH 10. Enzyme activity was determined by measuring the rate of production of NADH spectrophotometrically at 340 nm. Inhibition of GSNOR was calculated from the ratio of enzyme activity in the presence of compounds to that in no compound controls performed on the same assay plate. Following their identification from the high-throughput screening, the GSNOR inhibitory properties of the initial hits were confirmed at the pH 10 using 12-hydroxydodecanoic acid as the substrate and at pH 7.5 using GSNO as the substrate (see the brief description of Table 1 for details on how the assay was carried out.)
Target sequence in this assay (P11766 2-374 limits assumed): as the sequence (P11766 2-374 limits assumed) above

GSNOR [7] = target: T3, GSNOR; assay: GSNOR substrate kinetics with octanol; type: biochemical; settings: octanol versus GSNO
Description: GSNOR is an alcohol dehydrogenases and like other members of ADH family, is capable of oxidizing and reducing primary alcohols and aldehydes with the help of a molecule of NAD(H). Octanol was chosen as the substrate in the initial screening assay as it is bulky like GSNO, but has 200-fold higher KM value (1 mM) and a kcat value (200 min-1) that is more than 2 order of magnitude lower than that of GSNO. This allows the initial velocity conditions to prevail for a period up to 10 min (data not shown) and it enables conducting a large number of concurrent assays in a384 well plate format. The pH of the assay was adjusted to pH 10 in order to get significant rate of oxidation of octanol in the absence of compounds. The screening for GSNOR inhibitors was performed in the presence of saturating concentration of NAD^+ and an un-saturating concentration of octanol thereby increase the probability of identifying compounds that bind, only or primarily in the GSNO binding site of GSNOR. This was deemed desirable as there are many dehydrogenases inside the cells and compounds binding in the coenzyme binding site are more likely to be nonspecific inhibitors of GSNOR, than compounds that bind primarily to the form of GSNOR that binds GSNO.
Target sequence in this assay (P11766 whole entry): as the sequence (P11766 whole entry) above

T1 sequence (P08319 whole entry): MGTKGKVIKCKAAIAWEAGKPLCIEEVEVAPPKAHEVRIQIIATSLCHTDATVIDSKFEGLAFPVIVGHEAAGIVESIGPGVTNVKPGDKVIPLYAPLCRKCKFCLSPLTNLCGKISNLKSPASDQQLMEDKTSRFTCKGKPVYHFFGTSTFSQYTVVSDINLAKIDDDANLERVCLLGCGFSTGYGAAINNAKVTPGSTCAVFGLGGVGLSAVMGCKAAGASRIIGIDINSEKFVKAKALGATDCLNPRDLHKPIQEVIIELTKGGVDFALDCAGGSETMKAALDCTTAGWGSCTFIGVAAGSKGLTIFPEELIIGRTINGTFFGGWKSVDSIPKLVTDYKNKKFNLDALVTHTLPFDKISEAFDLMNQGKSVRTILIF

Cc1ccc(C)c(-c2csc(-c3cc4ccc(O)cc4oc3=O)n2)c1 [Compound 4]
inhibition of π-ADH (π-ADH): inhibited π-ADH more than GSNOR

CC(=O)Oc1ccc(C2Nc3ccc(C(=O)O)cc3C3C=CCC32)c(OC(C)=O)c1 (stereo not shown) [Compound 5]
inhibition of σ-ADH (σ-ADH): significant inhibition | inhibition of GSNOR (in words) (GSNOR [1]): modestly good inhibitor

CC(=O)c1ccc(-n2c(CCC(=O)O)ccc2-c2ccccc2)cc1 [Compound 6]
effect on fluorescence of GSNOR bound NADH (GSNOR•NADH complex [2]): quenched the NADH fluorescence | nitrosylation, fold higher than Compound 7 (RAW 264.7 cells; 33 μM initial concentration, 500 μM GSNO, 4 hr): 3 fold | decrease in nitrosylated species relative to amounts at 4 hours (RAW 264.7 cells; exposure up to 24 hours, data not shown): 80% | type of inhibition against varied NADH (GSNOR [3]): uncompetitive

O=C(O)CCCCCCCCCCCO [Compound 12-HDDA, 12-hydroxydodecanoic acid]
Kd (GSNOR•NADH complex [4]): 170 µM

N[C@@H](CCC(=O)N[C@@H](CSN=O)C(=O)NCC(=O)O)C(=O)O [GSNO, s-nitrosoglutathione]
buildup of nitrosylated compounds in cells (RAW 264.7 cells; 500 μM GSNO alone): significant buildup | time to equilibrium level of nitrosylated compounds (RAW 264.7 cells; 500 μM GSNO alone): ≤ 1 h

NC(=O)C1=CN([C@@H]2O[C@H](COP(=O)(O)OP(=O)(O)OC[C@H]3O[C@@H](n4cnc5c(N)ncnc54)[C@H](O)[C@@H]3O)[C@@H](O)[C@H]2O)C=CC1 [NADH]
Kd (GSNOR [5]): 0.05 µM

O=C(O)c1ccc2c(c1)C1C=CCC1C(c1ccc(O)cc1O)N2 (stereo not shown) [hydrolyzed form of compound 5]
inhibition of GSNOR compared with compound 5 (ester) (GSNOR [6]): three fold higher inhibition

CCCCCCCCO [octanol]
KM value, fold higher than GSNO (GSNOR [7]): 200 fold
